# From article PMC8026479 (Cancer Chemotherapy and Pharmacology, 2021)
# Where two headings read alike, the source gives them in different places.
# Legend:
# [1] = test system: chemotherapy-induced myelosuppression in ES-SCLC patients; assay: Study G1T28-02 Part 1 DLTs and myelosuppression endpoints (with E/P); format: in vivo, human
# Source text: G1T28-02 (NCT02499770) was a multicentre Phase Ib/IIa study in patients with newly diagnosed ES-SCLC [5]. Eligible patients were aged ≥ 18 years and had histologically or cytologically confirmed ES-SCLC, measurable disease per Response Evaluation Criteria in Solid Tumors (RECIST) version 1.1, an Eastern Cooperative Oncology Group (ECOG) performance status of 0–2, and adequate organ function. […] In the dose-finding Part 1 portion, blood samples for PK analysis were collected at prespecified time points on Cycle 1 Day 1 and Cycle 1 Day 3 (200 mg/m^2 cohort: all patients; 240 mg/m^2 cohort: optional).
# [2] = Study G1T28-03 Part 1 plasma PK (with topotecan); format: in vivo, human; conditions: for Cmax / T1/2 / AUC(0-inf) / clearance / Vd / half-life: geometric mean; for Vd: read-out: Vz; for Tmax: range
# Source text: G1T28-03 (NCT02514447) was a multicentre Phase Ib/IIa study in patients with previously treated ES-SCLC [14]. […] Part 1 was a Phase Ib, open-label, dose-finding portion. Part 2 was a Phase IIa, randomized, double-blind, placebo-controlled portion. […] In Part 1 of the study, blood samples for PK analysis were collected at prespecified time points on Cycle 1 Day 1 and Cycle 1 Day 4 for all patients.
# [3] = test system: murine HSCs / total bone marrow cycling cells; set-up: method as in PMID 28446688; conditions: mouse, at concentrations giving maximum decrease in total bone marrow cycling cells; cited from earlier work
# [4] = G1T28-02 Part 1, 200 mg/m2 + E/P (n = 10)
# [5] = G1T28-02 Part 1, 240 mg/m2 + E/P (n = 9)
# [6] = G1T28-02 Part 1, trilaciclib total (n = 19)
# [7] = ES-SCLC + topotecan, 280 mg/m2, Cycle 1 Day 1 (n = 7)
# [8] = human, plasma, 200 mg/m2, ES-SCLC + topotecan, 200 mg/m2, Cycle 1 Day 4 (n = 9)
# [9] = human, plasma, 280 mg/m2, ES-SCLC + topotecan, 280 mg/m2, Cycle 1 Day 1 (n = 7)
# [10] = human, plasma, 280 mg/m2, ES-SCLC + topotecan, 280 mg/m2, Cycle 1 Day 4 (n = 7)
# [11] = human, plasma, ES-SCLC + topotecan, 200 mg/m2, Cycle 1 Day 1 (n = 10)
# [12] = human, plasma, ES-SCLC + topotecan, 240 mg/m2, Cycle 1 Day 1 (n = 14)
# [13] = human, plasma, ES-SCLC + topotecan, 240 mg/m2, Cycle 1 Day 4 (n = 15)
compound,measurement,setting,value
CN1CCN(c2ccc(Nc3ncc4cc5n(c4n3)C3(CCCCC3)CNC5=O)nc2)CC1 [trilaciclib],"DSN, median (SD) (footnote a)",[1]; [4],6 (5.7) days
same,Mean ANC Nadir in Cycle 1,[1]; [4],1.198e+09 L⁻¹
same,Occurrence of ESA administrations,[1]; [4],2 (20.0) n (%)
same,Occurrence of FN,[1]; [4],0 n (%)
same,Occurrence of G-CSF administration,[1]; [4],5 (50.0) n (%)
same,Occurrence of Grade 3 or 4 hematologic laboratory abnormalities,[1]; [4],4 (40.0) n (%)
same,Occurrence of IV antibiotic use,[1]; [4],4 (40.0) n (%)
same,Occurrence of RBC transfusions on/after Week 5,[1]; [4],4 (40.0) n (%)
same,Occurrence of SN,[1]; [4],4 (40) n (%)
same,Occurrence of infection SAEs,[1]; [4],2 (20.0) n (%)
same,Occurrence of platelet transfusions,[1]; [4],1 (10.0) n (%)
same,Occurrence of pulmonary infection SAEs,[1]; [4],1 (10.0) n (%)
same,Patients with any event for MAHE,[1]; [4],6 (60.0) n (%)
same,"Time to first MAHE, median",[1]; [4],2.6 months
same,DLTs reported,"[1]; G1T28-02 Part 1, 200 mg/m2 + E/P, Grade 4 thrombocytopenia, and Grade 2 neutropenia resulting in Cycle 2 delay",Two DLTs
same,Mean ANC Nadir in Cycle 1,[1]; [5],1.653e+09 L⁻¹
same,Occurrence of ESA administrations,[1]; [5],0 n (%)
same,Occurrence of FN,[1]; [5],0 n (%)
same,Occurrence of G-CSF administration,[1]; [5],3 (33.3) n (%)
same,Occurrence of Grade 3 or 4 hematologic laboratory abnormalities,[1]; [5],1 (11.1) n (%)
same,Occurrence of IV antibiotic use,[1]; [5],1 (11.1) n (%)
same,Occurrence of RBC transfusions on/after Week 5,[1]; [5],1 (11.1) n (%)
same,Occurrence of SN,[1]; [5],0 n (%)
same,Occurrence of infection SAEs,[1]; [5],1 (11.1) n (%)
same,Occurrence of platelet transfusions,[1]; [5],0 n (%)
same,Occurrence of pulmonary infection SAEs,[1]; [5],0 n (%)
same,Patients with any event for MAHE,[1]; [5],6 (66.7) n (%)
same,"Time to first MAHE, median",[1]; [5],3.0 months
same,DLTs reported,"[1]; G1T28-02 Part 1, 240 mg/m2 + E/P, Grade 2 neutropenia resulting in Cycle 2 delay",one
same,"DSN, median (SD) (footnote a)",[1]; [6],6 (5.7) days
same,Mean ANC Nadir in Cycle 1,[1]; [6],1.414e+09 L⁻¹
same,Occurrence of ESA administrations,[1]; [6],2 (10.5) n (%)
same,Occurrence of FN,[1]; [6],0 n (%)
same,Occurrence of G-CSF administration,[1]; [6],8 (42.1) n (%)
same,Occurrence of Grade 3 or 4 hematologic laboratory abnormalities,[1]; [6],5 (26.3) n (%)
same,Occurrence of IV antibiotic use,[1]; [6],5 (26.3) n (%)
same,Occurrence of RBC transfusions on/after Week 5,[1]; [6],5 (26.3) n (%)
same,Occurrence of infection SAEs,[1]; [6],3 (15.8) n (%)
same,Occurrence of platelet transfusions,[1]; [6],1 (5.3) n (%)
same,Occurrence of pulmonary infection SAEs,[1]; [6],1 (5.3) n (%)
same,Patients with any event for MAHE,[1]; [6],12 (63.2) n (%)
same,"Time to first MAHE, median",[1]; [6],2.6 months
same,Cmax,"[2]; ES-SCLC + topotecan, 200 mg/m2, Cycle 1 Day 4 (n = 9)",1060 ng/mL
same,T1/2,"[2]; ES-SCLC + topotecan, 240 mg/m2, Cycle 1 Day 1 (n = 14)",407 min
same,Cmax,[2]; [7],1110 ng/mL
same,T1/2,[2]; [7],443 min
same,accumulation on repeated daily dosing,"[2]; G1T28-03 Part 1, 280 mg/m2, Day 1 vs Day 4, not observed at lower dose levels",resulted in drug accumulation
same,AUC(0-inf),"[2]; human, plasma, 200 mg/m2, ES-SCLC + topotecan, 200 mg/m2, Cycle 1 Day 1 (n = 10), read-out: AUC0-inf",2410 ng·h/mL
same,clearance,[2]; [8],2850 mL/min
same,Vd,[2]; [8],2120 L
same,Tmax,[2]; [8],22.8 to 34.8 min
same,AUC(0-inf),"[2]; human, plasma, 240 mg/m2, ES-SCLC + topotecan, 240 mg/m2, Cycle 1 Day 1 (n = 14), read-out: AUC0-inf",2910 ng·h/mL
same,Tmax,"[2]; human, plasma, 240 mg/m2, ES-SCLC + topotecan, 240 mg/m2, Cycle 1 Day 1 (n = 14)",24 to 42 min
same,AUC(0-inf),"[2]; human, plasma, 240 mg/m2, ES-SCLC + topotecan, 240 mg/m2, Cycle 1 Day 4 (n = 15), read-out: AUCtau (AUC0-inf, footnote a)",2880 ng·h/mL
same,Vd,"[2]; human, plasma, 240 mg/m2, ES-SCLC + topotecan, 240 mg/m2, Cycle 1 Day 4 (n = 15)",1730 L
same,clearance,[2]; [9],2680 mL/min
same,AUC(0-inf),"[2]; human, plasma, 280 mg/m2, ES-SCLC + topotecan, 280 mg/m2, Cycle 1 Day 1 (n = 7), read-out: AUC0-inf",3490 ng·h/mL
same,Vd,[2]; [9],1720 L
same,Tmax,[2]; [9],25.2 to 37.2 min
same,clearance,[2]; [10],2080 mL/min
same,AUC(0-inf),"[2]; human, plasma, 280 mg/m2, ES-SCLC + topotecan, 280 mg/m2, Cycle 1 Day 4 (n = 7), read-out: AUCtau (AUC0-inf, footnote a)",4520 ng·h/mL
same,Vd,[2]; [10],1530 L
same,Tmax,[2]; [10],25.2 to 33 min
same,clearance,[2]; [11],2750 mL/min
same,half-life,[2]; [11],415 min
same,Vd,[2]; [11],1650 L
same,Tmax,[2]; [11],25.2 to 40.2 min
same,clearance,[2]; [12],2420 mL/min
same,Cmax,"[2]; human, plasma, ES-SCLC + topotecan, 240 mg/m2, Cycle 1 Day 1 (n = 14), read-out: Cmax",1270 ng/mL
same,Vd,[2]; [12],1430 L
same,Tmax,[2]; [13],22.8 to 90 min
same,half-life,"[2]; human, plasma, ES-SCLC + topotecan, 200 mg/m2, Cycle 1 Day 4 (n = 9)",514 min
same,clearance,[2]; [13],2470 mL/min
same,Cmax,"[2]; human, plasma, ES-SCLC + topotecan, 240 mg/m2, Cycle 1 Day 4 (n = 15), read-out: Cmax",1220 ng/mL
same,half-life,"[2]; human, plasma, ES-SCLC + topotecan, 280 mg/m2, Cycle 1 Day 4 (n = 7)",512 min
same,Cmax,"[2]; human, plasma, ES-SCLC + topotecan, 280 mg/m2, Cycle 1 Day 4 (n = 7), read-out: Cmax",2220 ng/mL
same,HSPCs arrested in the G1 phase,[3],~100%
